Results taken from publication PMC7026418, “The kinase polypharmacology landscape of clinical PARP inhibitors” (Scientific Reports, 2020).
Like-named read-outs stand apart in the source and are kept apart here.

Assays:
Test in all cases: biochemical
Design in all cases: DiscoveRx KINOMEscan active site-directed competition binding; percent of control kinase bound to immobilised ligand
[1] = target: T1, FLT3(D835H) (Homo sapiens, UniProt P36888, D835H)
T1 sequence (P36888 1-993 D835H): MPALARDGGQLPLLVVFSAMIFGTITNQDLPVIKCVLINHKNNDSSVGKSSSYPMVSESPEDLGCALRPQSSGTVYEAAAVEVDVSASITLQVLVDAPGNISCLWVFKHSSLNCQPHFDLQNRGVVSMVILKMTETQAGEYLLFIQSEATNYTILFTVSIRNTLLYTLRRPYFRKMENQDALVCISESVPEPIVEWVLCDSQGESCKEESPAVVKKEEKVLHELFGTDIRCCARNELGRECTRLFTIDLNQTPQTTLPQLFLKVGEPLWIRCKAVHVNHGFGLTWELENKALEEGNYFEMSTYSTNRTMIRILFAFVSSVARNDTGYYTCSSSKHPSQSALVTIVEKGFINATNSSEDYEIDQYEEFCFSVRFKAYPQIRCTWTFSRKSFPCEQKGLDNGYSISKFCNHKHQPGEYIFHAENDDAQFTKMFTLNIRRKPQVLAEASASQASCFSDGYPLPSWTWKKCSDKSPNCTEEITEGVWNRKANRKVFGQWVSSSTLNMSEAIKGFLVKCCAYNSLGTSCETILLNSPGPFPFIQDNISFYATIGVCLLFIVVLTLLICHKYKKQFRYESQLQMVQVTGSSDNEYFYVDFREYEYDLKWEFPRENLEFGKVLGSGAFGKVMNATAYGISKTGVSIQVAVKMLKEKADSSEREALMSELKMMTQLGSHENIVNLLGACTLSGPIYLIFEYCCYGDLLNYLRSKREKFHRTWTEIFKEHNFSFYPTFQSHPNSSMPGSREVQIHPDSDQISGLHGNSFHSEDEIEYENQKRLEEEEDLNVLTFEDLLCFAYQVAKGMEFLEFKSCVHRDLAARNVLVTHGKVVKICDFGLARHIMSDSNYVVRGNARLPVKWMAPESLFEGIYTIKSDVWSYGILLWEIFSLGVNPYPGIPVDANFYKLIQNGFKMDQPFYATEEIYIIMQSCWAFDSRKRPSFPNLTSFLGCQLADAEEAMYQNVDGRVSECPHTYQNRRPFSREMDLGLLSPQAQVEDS

[2] = target: CHEK2 (Homo sapiens, UniProt O96017)
[3] = target: PIP5K1C (Homo sapiens, UniProt O60331)
[4] = target: KIT(D816H) (Homo sapiens, UniProt P10721, D816H)
[5] = target: T2, JAK2(JH1domain-catalytic) (Homo sapiens, UniProt O60674)
T2 construct: JH1domain-catalytic

[6] = target: T3, PIK3C2G (Homo sapiens, UniProt O75747)
T3 sequence (O75747 1-1486): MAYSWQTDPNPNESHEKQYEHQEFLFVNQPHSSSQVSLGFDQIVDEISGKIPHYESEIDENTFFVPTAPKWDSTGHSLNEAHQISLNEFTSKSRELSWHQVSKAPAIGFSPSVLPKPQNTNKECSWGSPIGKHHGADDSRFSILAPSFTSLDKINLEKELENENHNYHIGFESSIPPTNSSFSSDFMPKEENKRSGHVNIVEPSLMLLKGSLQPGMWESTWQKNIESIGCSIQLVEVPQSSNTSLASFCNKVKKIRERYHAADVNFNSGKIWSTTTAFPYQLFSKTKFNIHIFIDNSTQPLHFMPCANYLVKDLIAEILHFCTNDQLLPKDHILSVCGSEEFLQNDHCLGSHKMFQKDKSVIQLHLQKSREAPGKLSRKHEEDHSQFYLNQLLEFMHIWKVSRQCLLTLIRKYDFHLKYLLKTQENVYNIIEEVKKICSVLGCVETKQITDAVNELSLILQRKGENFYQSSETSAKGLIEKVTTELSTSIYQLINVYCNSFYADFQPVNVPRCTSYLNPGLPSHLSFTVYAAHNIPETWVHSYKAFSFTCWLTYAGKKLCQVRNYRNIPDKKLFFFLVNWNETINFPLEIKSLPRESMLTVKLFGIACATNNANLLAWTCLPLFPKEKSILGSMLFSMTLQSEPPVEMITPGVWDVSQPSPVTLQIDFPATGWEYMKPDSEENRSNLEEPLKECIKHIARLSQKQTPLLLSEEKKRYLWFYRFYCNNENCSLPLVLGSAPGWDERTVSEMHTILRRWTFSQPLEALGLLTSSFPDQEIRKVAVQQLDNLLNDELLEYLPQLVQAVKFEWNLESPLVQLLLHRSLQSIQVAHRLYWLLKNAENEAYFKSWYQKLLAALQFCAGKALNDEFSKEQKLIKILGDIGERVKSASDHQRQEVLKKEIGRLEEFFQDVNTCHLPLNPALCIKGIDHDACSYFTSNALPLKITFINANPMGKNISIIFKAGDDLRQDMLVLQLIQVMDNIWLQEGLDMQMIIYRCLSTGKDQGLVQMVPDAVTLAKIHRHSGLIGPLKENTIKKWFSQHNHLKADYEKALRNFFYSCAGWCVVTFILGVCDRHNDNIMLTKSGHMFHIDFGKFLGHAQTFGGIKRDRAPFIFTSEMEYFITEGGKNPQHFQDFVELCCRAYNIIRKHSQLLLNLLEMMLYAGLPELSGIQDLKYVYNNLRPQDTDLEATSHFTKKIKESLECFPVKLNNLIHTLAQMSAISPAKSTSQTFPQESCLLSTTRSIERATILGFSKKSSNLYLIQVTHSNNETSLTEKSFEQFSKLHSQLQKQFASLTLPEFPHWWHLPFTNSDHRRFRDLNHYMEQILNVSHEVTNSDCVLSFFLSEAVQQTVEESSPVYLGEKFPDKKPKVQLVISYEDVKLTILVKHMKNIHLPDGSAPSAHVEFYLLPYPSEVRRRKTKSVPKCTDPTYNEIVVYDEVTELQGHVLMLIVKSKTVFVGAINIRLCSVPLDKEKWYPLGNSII

[7] = read-out: Talazoparib (BMN 673) / %Ctrl @ 10000nM
[8] = read-out: Olaparib / %Ctrl @ 10000nM
[9] = read-out: Niraparib (MK-4827) / %Ctrl @ 10000nM
[10] = read-out: Rucaparib / %Ctrl @ 10000nM, binding competition, % of control

KIT(D816H), sequence (P10721 whole entry D816H): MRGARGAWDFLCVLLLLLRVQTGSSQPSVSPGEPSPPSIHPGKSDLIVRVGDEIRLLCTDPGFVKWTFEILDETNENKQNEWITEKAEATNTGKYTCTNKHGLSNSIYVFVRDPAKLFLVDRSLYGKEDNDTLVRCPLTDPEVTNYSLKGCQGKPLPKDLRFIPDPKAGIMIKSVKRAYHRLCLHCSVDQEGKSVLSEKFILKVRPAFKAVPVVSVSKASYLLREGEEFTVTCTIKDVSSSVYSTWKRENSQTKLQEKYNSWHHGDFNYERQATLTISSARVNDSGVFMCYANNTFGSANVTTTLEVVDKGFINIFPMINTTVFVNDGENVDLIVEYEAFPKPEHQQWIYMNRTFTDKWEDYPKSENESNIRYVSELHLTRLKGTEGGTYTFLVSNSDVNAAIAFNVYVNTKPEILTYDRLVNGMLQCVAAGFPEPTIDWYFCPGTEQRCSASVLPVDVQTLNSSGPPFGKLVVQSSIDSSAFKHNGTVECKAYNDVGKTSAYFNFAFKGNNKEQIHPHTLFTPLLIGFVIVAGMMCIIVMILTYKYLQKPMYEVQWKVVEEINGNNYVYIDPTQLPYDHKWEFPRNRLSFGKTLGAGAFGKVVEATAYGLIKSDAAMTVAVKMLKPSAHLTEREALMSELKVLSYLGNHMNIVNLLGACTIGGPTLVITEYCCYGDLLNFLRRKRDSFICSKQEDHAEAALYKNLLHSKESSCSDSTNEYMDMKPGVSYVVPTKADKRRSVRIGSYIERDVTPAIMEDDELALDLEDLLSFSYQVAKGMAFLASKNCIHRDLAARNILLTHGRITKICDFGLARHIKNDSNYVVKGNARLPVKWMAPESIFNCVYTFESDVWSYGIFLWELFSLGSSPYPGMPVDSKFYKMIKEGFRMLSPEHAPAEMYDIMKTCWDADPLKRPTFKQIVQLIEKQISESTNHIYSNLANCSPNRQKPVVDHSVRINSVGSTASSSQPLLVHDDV
T2 sequence (O60674 whole entry): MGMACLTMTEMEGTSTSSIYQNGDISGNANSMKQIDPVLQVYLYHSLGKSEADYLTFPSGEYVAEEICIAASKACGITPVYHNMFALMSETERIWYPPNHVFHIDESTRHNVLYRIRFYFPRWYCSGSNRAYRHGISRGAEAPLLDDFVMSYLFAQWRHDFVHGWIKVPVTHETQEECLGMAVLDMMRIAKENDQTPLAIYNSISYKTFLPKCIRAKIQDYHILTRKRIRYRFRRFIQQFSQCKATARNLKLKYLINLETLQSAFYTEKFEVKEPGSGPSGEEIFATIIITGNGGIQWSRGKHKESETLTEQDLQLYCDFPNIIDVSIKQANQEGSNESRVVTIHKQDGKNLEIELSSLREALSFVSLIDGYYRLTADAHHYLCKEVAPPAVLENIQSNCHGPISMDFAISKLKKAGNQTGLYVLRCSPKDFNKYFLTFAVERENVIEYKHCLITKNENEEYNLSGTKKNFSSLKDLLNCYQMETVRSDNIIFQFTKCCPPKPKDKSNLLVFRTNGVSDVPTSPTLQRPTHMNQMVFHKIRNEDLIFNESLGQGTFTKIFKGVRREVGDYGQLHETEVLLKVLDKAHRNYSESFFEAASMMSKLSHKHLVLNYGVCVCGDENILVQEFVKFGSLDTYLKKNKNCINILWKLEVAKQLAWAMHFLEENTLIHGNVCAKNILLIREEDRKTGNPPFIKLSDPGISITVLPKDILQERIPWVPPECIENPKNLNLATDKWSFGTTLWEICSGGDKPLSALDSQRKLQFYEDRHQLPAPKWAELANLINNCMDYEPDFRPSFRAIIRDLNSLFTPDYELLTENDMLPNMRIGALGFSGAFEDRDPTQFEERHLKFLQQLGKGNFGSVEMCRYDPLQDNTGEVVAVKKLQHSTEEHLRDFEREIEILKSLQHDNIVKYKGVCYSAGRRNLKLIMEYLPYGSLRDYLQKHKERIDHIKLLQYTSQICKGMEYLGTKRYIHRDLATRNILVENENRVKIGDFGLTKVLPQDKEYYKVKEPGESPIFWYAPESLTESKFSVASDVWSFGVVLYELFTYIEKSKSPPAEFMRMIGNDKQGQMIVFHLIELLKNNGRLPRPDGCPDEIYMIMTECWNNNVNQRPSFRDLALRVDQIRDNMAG
CHEK2, sequence (O96017 whole entry): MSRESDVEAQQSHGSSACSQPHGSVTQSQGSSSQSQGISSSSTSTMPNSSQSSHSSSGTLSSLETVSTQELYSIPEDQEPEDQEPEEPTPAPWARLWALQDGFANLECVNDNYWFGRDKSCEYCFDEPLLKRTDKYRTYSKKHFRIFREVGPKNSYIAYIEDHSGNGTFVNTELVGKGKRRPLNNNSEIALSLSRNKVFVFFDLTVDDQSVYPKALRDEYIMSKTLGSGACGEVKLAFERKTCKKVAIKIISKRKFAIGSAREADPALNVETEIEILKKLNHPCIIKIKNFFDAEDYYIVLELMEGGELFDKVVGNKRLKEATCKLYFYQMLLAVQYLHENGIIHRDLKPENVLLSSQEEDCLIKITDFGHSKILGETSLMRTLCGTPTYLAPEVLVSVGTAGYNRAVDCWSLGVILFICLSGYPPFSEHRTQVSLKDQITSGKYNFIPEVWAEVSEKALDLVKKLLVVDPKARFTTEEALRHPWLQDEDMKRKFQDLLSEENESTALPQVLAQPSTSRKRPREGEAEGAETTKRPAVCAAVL
PIP5K1C, sequence (O60331 whole entry): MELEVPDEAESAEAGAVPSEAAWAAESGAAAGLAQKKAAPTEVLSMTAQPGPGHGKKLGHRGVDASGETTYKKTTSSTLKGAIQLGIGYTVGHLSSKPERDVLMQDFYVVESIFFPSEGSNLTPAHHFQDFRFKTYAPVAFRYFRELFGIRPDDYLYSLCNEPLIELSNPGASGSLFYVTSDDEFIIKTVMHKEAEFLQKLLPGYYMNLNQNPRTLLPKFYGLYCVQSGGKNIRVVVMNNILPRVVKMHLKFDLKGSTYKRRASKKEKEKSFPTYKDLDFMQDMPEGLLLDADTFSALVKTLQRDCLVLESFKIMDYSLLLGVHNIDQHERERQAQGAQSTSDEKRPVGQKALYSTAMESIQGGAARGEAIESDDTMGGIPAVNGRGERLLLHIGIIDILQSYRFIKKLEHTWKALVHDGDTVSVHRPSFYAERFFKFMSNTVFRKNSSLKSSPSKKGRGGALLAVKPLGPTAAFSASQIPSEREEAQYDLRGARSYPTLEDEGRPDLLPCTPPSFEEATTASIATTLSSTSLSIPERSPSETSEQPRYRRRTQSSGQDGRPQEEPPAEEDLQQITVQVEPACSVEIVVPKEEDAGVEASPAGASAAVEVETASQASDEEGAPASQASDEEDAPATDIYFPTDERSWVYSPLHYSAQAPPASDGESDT

`Cn1ncnc1[C@H]1c2n[nH]c(=O)c3cc(F)cc(c23)N[C@@H]1c1ccc(F)cc1` [Talazoparib] showed a percent of control binding at 10 µM [1, 7] of 89%, a percent of control binding at 10 µM [2, 7] of 93% and a percent of control binding at 10 µM [3, 7] of 100%. It also gave a percent of control binding at 10 µM [4, 7] of 100%, a percent of control binding at 10 µM [5, 7] of 93% and a percent of control binding at 10 µM [6, 7] of 81%.

Compound `O=C(c1cc(Cc2n[nH]c(=O)c3ccccc23)ccc1F)N1CCN(C(=O)C2CC2)CC1` [Olaparib] has a percent of control binding at 10 µM [1, 8] of 91%, a percent of control binding at 10 µM [2, 8] of 94% and a percent of control binding at 10 µM [3, 8] of 100%. For the same compound, the percent of control binding at 10 µM [4, 8] was 96%, the percent of control binding at 10 µM [5, 8] was 78% and the percent of control binding at 10 µM [6, 8] was 82%.

`NC(=O)c1cccc2cn(-c3ccc([C@@H]4CCCNC4)cc3)nc12` [Niraparib] gave a percent of control binding at 10 µM [1, 9] of 83%, a percent of control binding at 10 µM [2, 9] of 89% and a percent of control binding at 10 µM [3, 9] of 83%. The percent of control binding at 10 µM [4, 9] was 94%, the percent of control binding at 10 µM [5, 9] was 82% and the percent of control binding at 10 µM [6, 9] was 79%.

In the case of `CNCc1ccc(-c2[nH]c3cc(F)cc4c3c2CCNC4=O)cc1` [Rucaparib], the “Rucaparib / %Ctrl @ 10000nM” value ([1]; binding competition, % of control) is reported as 42%, the percent of control binding at 10 µM [2, 10] is reported as 76% and the percent of control binding at 10 µM [3, 10] is reported as 100%. It also gave a percent of control binding at 10 µM [4, 10] of 82%, a percent of control binding at 10 µM [5, 10] of 70% and a percent of control binding at 10 µM [6, 10] of 73%.
